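Growth conditions: 96-well plates. Treatment: test compound, 48 hours, 5 concentrations. Analysis: linear interpolation between bracketing concentrations; unreached endpoints set to highest concentration. GI50: concentration for 50% inhibition of growth. The concentration for full growth arrest is given as TGI.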
Assays:
Assay in all cases: growth of human tumour cells (NCI), 48 h
[1] = test system: 786-0 renal
[2] = test system: A498 renal
[3] = test system: A549 NSCLC
[4] = test system: ACHN renal
[5] = test system: BT-549 breast
[6] = test system: CAKI-1 renal
[7] = test system: CCRF-CEM leukemia
[8] = test system: COLO 205 colon
[9] = test system: DU-145 prostate
[10] = test system: EKVX NSCLC
[11] = test system: HCC-2998 colon
[12] = test system: HCT-116 colon
[13] = test system: HCT-15 colon
[14] = test system: HL-60(TB) leukemia
[15] = test system: HOP-62 NSCLC
[16] = test system: HOP-92 NSCLC
[17] = test system: HS 578T breast
[18] = test system: HT29 colon
[19] = test system: K-562 leukemia
[20] = test system: KM12 colon
[21] = test system: LOX IMVI melanoma
[22] = test system: M14 melanoma
[23] = test system: MALME-3M melanoma
[24] = test system: MCF7 breast
[25] = test system: MDA-MB-231 breast
[26] = test system: MDA-MB-435
[27] = test system: MDA-N
[28] = test system: MOLT-4 leukemia
[29] = test system: NCI-H226 lung
[30] = test system: NCI-H23 lung
[31] = test system: NCI-H460 lung
[32] = test system: NCI/ADR-RES ovarian
[33] = test system: OVCAR-3 ovarian
[34] = test system: OVCAR-4 ovarian
[35] = test system: OVCAR-5 ovarian
[36] = test system: OVCAR-8 ovarian
[37] = test system: PC-3 prostate
[38] = test system: RPMI-8226 leukemia
[39] = test system: RXF 393 renal
[40] = test system: SF-268 CNS
[41] = test system: SF-295 CNS
[42] = test system: SF-539 CNS
[43] = test system: SK-MEL-2 melanoma
[44] = test system: SK-MEL-28 melanoma
[45] = test system: SK-MEL-5 melanoma
[46] = test system: SK-OV-3 ovarian
[47] = test system: SN12C renal
[48] = test system: SNB-19 CNS
[49] = test system: SNB-75 CNS
[50] = test system: SW-620 colon
[51] = test system: TK-10 renal
[52] = test system: U251 CNS
[53] = test system: UACC-257 melanoma
[54] = test system: UACC-62 melanoma
[55] = test system: UO-31 renal
[56] = test system: IGROV1 ovarian
[57] = test system: NCI-H522 lung
[58] = test system: SR leukemia
[59] = test system: T-47D breast

COc1ccc(C[C@@H](CO)NC2=C(C#N)CCC2)cc1
TGI [1]: > 100000 nM | TGI [2]: 97900 nM | TGI [3]: > 100000 nM | TGI [4]: > 100000 nM | TGI [5]: > 100000 nM | TGI [6]: > 100000 nM | TGI [7]: > 100000 nM | TGI [8]: > 100000 nM | TGI [9]: > 100000 nM | TGI [10]: > 100000 nM | TGI [11]: > 100000 nM | TGI [12]: > 100000 nM | TGI [13]: > 100000 nM | TGI [14]: 27800 nM | TGI [15]: > 100000 nM | TGI [16]: > 100000 nM | TGI [17]: 93000 nM | TGI [18]: > 100000 nM | TGI [19]: > 100000 nM | TGI [20]: 63500 nM | TGI [21]: > 100000 nM | TGI [22]: > 100000 nM | TGI [23]: > 100000 nM | TGI [24]: > 100000 nM | TGI [25]: > 100000 nM | TGI [26]: > 100000 nM | TGI [27]: > 100000 nM | TGI [28]: > 100000 nM | TGI [29]: > 100000 nM | TGI [30]: > 100000 nM | TGI [31]: > 100000 nM | TGI [32]: > 100000 nM | TGI [33]: > 100000 nM | TGI [34]: > 100000 nM | TGI [35]: > 100000 nM | TGI [36]: > 100000 nM | TGI [37]: > 100000 nM | TGI [38]: 59600 nM | TGI [39]: > 100000 nM | TGI [40]: > 100000 nM | TGI [41]: > 100000 nM | TGI [42]: > 100000 nM | TGI [43]: > 100000 nM | TGI [44]: > 100000 nM | TGI [45]: > 100000 nM | TGI [46]: > 100000 nM | TGI [47]: > 100000 nM | TGI [48]: > 100000 nM | TGI [49]: 95100 nM | TGI [50]: > 100000 nM | TGI [51]: > 100000 nM | TGI [52]: > 100000 nM | TGI [53]: > 100000 nM | TGI [54]: > 100000 nM | TGI [55]: > 100000 nM

c1ccc(CCCCNCc2cc(CNCCCCc3ccccc3)cc(CNCCCCc3ccccc3)c2)cc1
TGI [1]: 26400 nM | TGI [3]: 326 nM | TGI [4]: 2950 nM | TGI [5]: 2830 nM | TGI [7]: 432 nM | TGI [8]: 644 nM | TGI [9]: 2070 nM | TGI [12]: 6420 nM | TGI [13]: 368 nM | TGI [14]: 434 nM | TGI [19]: > 100000 nM | TGI [22]: 330 nM | TGI [27]: 10200 nM | TGI [30]: 2110 nM | TGI [31]: > 100000 nM | TGI [32]: 1100 nM | TGI [33]: 2770 nM | TGI [35]: 3220 nM | TGI [41]: 3060 nM | TGI [44]: 1840 nM | TGI [46]: 3410 nM | TGI [47]: 23500 nM | TGI [48]: 908 nM | TGI [55]: 949 nM

COc1cc[nH]c1/C=C1\C(=O)Nc2ccc(F)c(C#CC3(O)CCNCC3)c21
GI50 [1]: 106 nM | TGI [1]: 1680 nM | GI50 [2]: 108 nM | TGI [2]: 568 nM | GI50 [3]: 98.5 nM | TGI [3]: 1180 nM | GI50 [4]: 26.2 nM | TGI [4]: 2560 nM | GI50 [5]: 318 nM | TGI [5]: 696 nM | GI50 [6]: 18.1 nM | TGI [6]: 472 nM | GI50 [7]: 77.9 nM | TGI [7]: 836 nM | GI50 [8]: 30.3 nM | TGI [8]: 372 nM | GI50 [9]: 42.9 nM | TGI [9]: 2140 nM | GI50 [11]: 368 nM | TGI [11]: 979 nM | GI50 [12]: 12.5 nM | TGI [12]: 2760 nM | GI50 [13]: 139 nM | TGI [13]: 1930 nM | GI50 [14]: 53.2 nM | TGI [14]: 228 nM | GI50 [15]: 261 nM | TGI [15]: 1470 nM | GI50 [16]: 106 nM | TGI [16]: 794 nM | GI50 [17]: 75.4 nM | TGI [17]: 1540 nM | GI50 [18]: 91.6 nM | TGI [18]: 1100 nM | GI50 [56]: 383 nM | TGI [56]: 2270 nM | GI50 [19]: 550 nM | TGI [19]: 2510 nM | GI50 [20]: 2.5 nM | TGI [20]: 726 nM | GI50 [21]: 64.5 nM | TGI [21]: 568 nM | GI50 [22]: 41.3 nM | TGI [22]: 684 nM | GI50 [23]: 405 nM | TGI [23]: 1110 nM | GI50 [24]: 111 nM | TGI [24]: 1900 nM | GI50 [25]: 169 nM | TGI [25]: 1000 nM | GI50 [26]: 74.5 nM | TGI [26]: 504 nM | GI50 [28]: 63 nM | TGI [28]: 965 nM | GI50 [29]: 138 nM | TGI [29]: 920 nM | GI50 [30]: 161 nM | TGI [30]: 1140 nM | GI50 [31]: 77.8 nM | TGI [31]: 747 nM | GI50 [57]: 220 nM | TGI [57]: 715 nM | GI50 [32]: 2110 nM | TGI [32]: 8240 nM | GI50 [33]: 350 nM | TGI [33]: 1550 nM | GI50 [34]: 346 nM | TGI [34]: 1620 nM | GI50 [35]: 275 nM | TGI [35]: 2370 nM | GI50 [36]: 172 nM | TGI [36]: 1650 nM | GI50 [37]: 181 nM | TGI [37]: 1950 nM | GI50 [38]: 372 nM | TGI [38]: 1230 nM | GI50 [39]: 20.4 nM | TGI [39]: 201 nM | GI50 [40]: 196 nM | TGI [40]: 848 nM | GI50 [41]: 287 nM | TGI [41]: 2800 nM | GI50 [42]: 106 nM | TGI [42]: 426 nM | GI50 [43]: 9.88 nM | TGI [43]: 464 nM | GI50 [44]: 140 nM | TGI [44]: 1390 nM | GI50 [45]: 240 nM | TGI [45]: 968 nM | GI50 [46]: 17.2 nM | TGI [46]: 2610 nM | GI50 [47]: 62.6 nM | TGI [47]: 2500 nM | GI50 [48]: 564 nM | TGI [48]: 2150 nM | GI50 [49]: 14 nM | TGI [49]: 469 nM | GI50 [58]: 8.64 nM | TGI [58]: 141 nM | GI50 [50]: 83.2 nM | TGI [50]: 2670 nM | GI50 [59]: 819 nM | TGI [59]: 2590 nM | GI50 [51]: 29.1 nM | TGI [51]: 720 nM | GI50 [52]: 73.6 nM | TGI [52]: 984 nM | GI50 [53]: 363 nM | TGI [53]: 1600 nM | GI50 [54]: 160 nM | TGI [54]: 633 nM | GI50 [55]: 119 nM | TGI [55]: 2190 nM

— PubChem BioAssay (NCI)
